Reference: ChEMBL document CHEMBL4622990, “Synthesis and Antitumor Activity of C-7-Alkynylated and Arylated Pyrrolotriazine C-Ribonucleosides” (ACS Med Chem Lett, 2020)
Calls of active or inactive are those of the source. No cut-off for these calls is given here.

Columns and labels:
[1] = system: LN-229; experiment: Antiproliferative activity against human LN229 cells assessed as reduction in cell viability incubated for 72 hrs by IncuCyte live-cell imaging assay; type: functional, cell-based; conditions: LN-229, 72 h
[2] = system: CAPAN-1; experiment: Antiproliferative activity against human Capan1 cells assessed as reduction in cell viability incubated for 72 hrs by IncuCyte live-cell imaging assay; type: functional, cell-based; conditions: CAPAN-1, 72 h
[3] = system: HCT-116; experiment: Antiproliferative activity against human HCT116 cells assessed as reduction in cell viability incubated for 72 hrs by IncuCyte live-cell imaging assay; type: functional, cell-based; conditions: HCT-116, 72 h
[4] = system: NCI-H460; experiment: Antiproliferative activity against human NCI-H460 cells assessed as reduction in cell viability incubated for 72 hrs by IncuCyte live-cell imaging assay; type: functional, cell-based; conditions: NCI-H460, 72 h
[5] = Antiproliferative activity against human DND41 cells assessed as reduction in cell viability incubated for 72 hrs by IncuCyte live-cell imaging assay; type: functional, cell-based; conditions: DND41, 72 h
[6] = system: HL-60; experiment: Antiproliferative activity against human HL60 cells assessed as reduction in cell viability incubated for 72 hrs by IncuCyte live-cell imaging assay; type: functional, cell-based; conditions: HL-60, 72 h
[7] = system: K562; experiment: Antiproliferative activity against human K562 cells assessed as reduction in cell viability incubated for 72 hrs by IncuCyte live-cell imaging assay; type: functional, cell-based; conditions: K562, 72 h
[8] = system: Z-138; experiment: Antiproliferative activity against human Z138 cells assessed as reduction in cell viability incubated for 72 hrs by IncuCyte live-cell imaging assay; type: functional, cell-based; conditions: Z-138, 72 h
[9] = target: Tubulin (Homo sapiens) (UniProt P68371+Q9H4B7+P0DPH7+P68366+Q13509+Q71U36+P04350+Q3ZCM7+P07437+P68363+Q9BQE3+Q6PEY2+Q13885+Q9BVA1+Q9BUF5); experiment: Inhibition of tubulin polymerization in human Hep2 cells at 100 uM after 3 hrs by DAPI-staining based fluorescence microscopic assay; type: cell-based; conditions: HEp-2
[10] = system: Salmon testes DNA; experiment: Binding affinity to salmon sperm DNA assessed as DNA intercalation at 20 uM incubated for 20 mins by acridine orange orange dye based fluorescence polarization assay; type: nucleic-acid assay; conditions: Salmonidae
[11] = system: HEp-2; experiment: Induction of DNA damage in human Hep2 cells assessed as gamma-H2AX positive cells at 100 uM after 24 hrs by DAPI staining based immunofluorescence analysis (reference value: 0.51%); type: functional
[12] = system: HEp-2; experiment: Induction of DNA damage in human Hep2 cells assessed as gamma-H2AX positive cells at 10 uM after 24 hrs by DAPI staining based immunofluorescence analysis relative to control; type: functional
[13] = system: HEp-2; experiment: Induction of DNA damage in human Hep2 cells assessed as gamma-H2AX positive cells at 1 uM after 24 hrs by DAPI staining based immunofluorescence analysis relative to control; type: functional
[14] = system: PBMC; experiment: Induction of apoptosis in human PBMC assessed as caspase 3/7 activation at 0.0064 to 100 uM incubated for 72 hrs and measured at 3 hrs interval by IncuCyte Caspase 3/7 Green reagent based assay; type: cell-based
[15] = system: CAPAN-1; experiment: Induction of apoptosis in human Capan1 cells assessed as increase in apoptotic cells incubated for 72 hrs and measured at 3 hrs interval by IncuCyte Caspase 3/7 Green reagent based assay; type: functional, cell-based
[16] = system: HEp-2; experiment: Induction of DNA damage in human Hep2 cells assessed as increase in gamma-H2AX positive cells after 24 hrs by DAPI staining based immunofluorescence analysis; type: functional, cell-based
[17] = system: PBMC; experiment: Induction of apoptosis in human PBMC assessed as caspase 3/7 activation incubated for 72 hrs and measured at 3 hrs interval by IncuCyte Caspase 3/7 Green reagent based assay; type: cell-based

Row | SMILES | IC50 [1] [µM] | IC50 [2] [µM] | IC50 [3] [µM] | IC50 [4] [µM] | IC50 [5] [µM] | IC50 [6] [µM] | IC50 [7] [µM] | IC50 [8] [µM] | inhibition [9] | Activity [10] | Activity [11] [%] | Activity [12] [%] | Activity [13] [%] | Activity [14] | Activity [15] | Activity [16] | IC50 [17] [µM]
1 | Nc1ncnn2c([C@@H]3O[C@H](CO)[C@@H](O)[C@H]3O)cc(C#Cc3ccc(F)cc3)c12 | > 100 | 55.4 | > 100 | 79.4 | > 100 | > 100 | > 100 | 89 | – | – | – | – | – | – | – | – | –
2 | Nc1ncnn2c([C@@H]3O[C@H](CO)[C@@H](O)[C@H]3O)cc(-c3ccc(F)cc3)c12 | 65.6 | 65.6 | 42.5 | 55.5 | 39.3 | 68.3 | > 100 | > 100 | – | – | – | – | – | – | – | – | –
3 | Nc1ncnn2c([C@@H]3O[C@H](CO)[C@@H](O)[C@H]3O)cc(-c3ccsc3)c12 | 57.7 | 56.2 | 45.2 | 35.6 | 85.4 | 37.3 | 66.4 | 43.5 | – | – | – | – | – | – | – | – | –
4 | Nc1ncnn2c([C@@H]3O[C@H](CO)[C@@H](O)[C@H]3O)cc(-c3ccccc3F)c12 | > 100 | > 100 | > 100 | > 100 | > 100 | > 100 | > 100 | 95.3 | – | – | – | – | – | – | – | – | –
5 | Nc1ncnn2c([C@@H]3O[C@H](CO)[C@@H](O)[C@H]3O)cc(-c3ccc(F)cc3F)c12 | 43.5 | 50.9 | 59.5 | 93.3 | 68.2 | 99.3 | 69.7 | 59.1 | – | – | – | – | – | – | – | – | –
6 | Nc1ncnn2c([C@@H]3O[C@H](CO)[C@@H](O)[C@H]3O)cc(-c3ccoc3)c12 | 1 | 0.9 | 1.4 | 1.5 | 0.1 | 0.5 | 2.1 | 0.3 | Active | Active | 3.74 | 1.54 | 0.13 | Non-Toxic | Active | Dose-dependent effect | –
7 | Nc1ncnn2c([C@@H]3O[C@H](CO)[C@@H](O)[C@H]3O)cc(C#Cc3ccccc3)c12 | 88 | 37.7 | 46.9 | 38.5 | 62.6 | > 100 | > 100 | 41.4 | – | – | – | – | – | – | – | – | –
8 | Nc1ncnn2c([C@@H]3O[C@H](CO)[C@@H](O)[C@H]3O)cc(/C=C/c3ccccc3)c12 | 3.9 | 2.6 | 4.8 | 3.7 | 1.7 | 2 | 3.1 | 1.3 | Active | Active | 0.22 | 0 | 0.05 | Non-Toxic | – | Dose-dependent effect | –
9 | Cc1ccccc1-c1cc([C@@H]2O[C@H](CO)[C@@H](O)[C@H]2O)n2ncnc(N)c12 | > 100 | 97.5 | > 100 | > 100 | 94.1 | 48.4 | > 100 | 66 | – | – | – | – | – | – | – | – | –
10 | Nc1ncnn2c([C@@H]3O[C@H](CO)[C@@H](O)[C@H]3O)cc(C#CC3CC3)c12 | 0.03 | 0.02 | 0.05 | 0.08 | 0.04 | 0.04 | 0.04 | 0.02 | Active | Active | 16.22 | 5.2 | 3.22 | – | Active | Dose-dependent effect | 0.1 to 0.4
11 | CN[C@@H]1C[C@H]2O[C@@](C)([C@@H]1OC)n1c3ccccc3c3c4c(c5c6ccccc6n2c5c31)C(=O)NC4 [STAUROSPORINE] | – | – | 0.04 | 0.06 | – | 0.04 | 0.04 | – | – | – | – | – | – | – | – | – | –
12 | Nc1ncnn2c([C@@H]3O[C@H](CO)[C@@H](O)[C@H]3O)cc(-c3ccccc3Cl)c12 | > 100 | 54.9 | > 100 | > 100 | 78.5 | > 100 | > 100 | 76.1 | – | – | – | – | – | – | – | – | –
13 | Nc1ncnn2c([C@@H]3O[C@H](CO)[C@@H](O)[C@H]3O)cc(C#Cc3cccs3)c12 | > 100 | 32 | 65.5 | 26.6 | 33.4 | > 100 | > 100 | 50.1 | – | – | – | – | – | – | – | – | –
14 | COc1ccc(-c2cc([C@@H]3O[C@H](CO)[C@@H](O)[C@H]3O)n3ncnc(N)c23)cc1 | 40.3 | 43.9 | 47.1 | 69.3 | 41.7 | > 100 | 76.4 | 62.6 | – | – | – | – | – | – | – | – | –
15 | Nc1ncnn2c([C@@H]3O[C@H](CO)[C@@H](O)[C@H]3O)cc(-c3ccc(Cl)cc3)c12 | 32.6 | 56.7 | 59.3 | 45.9 | 35.1 | 37.9 | 47.8 | 40.2 | – | – | – | – | – | – | – | – | –
16 | Nc1ncnn2c([C@@H]3O[C@H](CO)[C@@H](O)[C@H]3O)cc(-c3ccccc3)c12 | 75.1 | 65.2 | 82.6 | > 100 | > 100 | > 100 | > 100 | > 100 | – | – | – | – | – | – | – | – | –
17 | CCCC#Cc1cc([C@@H]2O[C@H](CO)[C@@H](O)[C@H]2O)n2ncnc(N)c12 | 0.04 | 0.02 | 0.2 | 0.4 | 0.08 | 0.2 | 1.1 | 0.02 | Active | Active | 9.38 | 0.82 | 1.14 | – | – | Dose-dependent effect | 0.05 to 11
18 | CCCCC#Cc1cc([C@@H]2O[C@H](CO)[C@@H](O)[C@H]2O)n2ncnc(N)c12 | 1 | 1 | 2.9 | 1.7 | 0.4 | 0.4 | 2.4 | 0.2 | Active | Active | 1.57 | 0.35 | 0.31 | Non-Toxic | Active | Dose-dependent effect | –
19 | CC(=O)O[C@@]12CO[C@@H]1C[C@H](O)[C@@]1(C)C(=O)[C@H](O)C3=C(C)[C@@H](OC(=O)[C@H](O)[C@@H](NC(=O)OC(C)(C)C)c4ccccc4)C[C@@](O)([C@@H](OC(=O)c4ccccc4)[C@H]21)C3(C)C [DOCETAXEL ANHYDROUS] | 0.002 | 0.025 | 0.007 | 0.004 | 0.005 | 0.05 | 0.009 | 0.004 | – | – | – | – | – | – | – | – | –
20 | COc1cc([C@@H]2c3cc4c(cc3[C@@H](O[C@@H]3O[C@@H]5CO[C@@H](C)O[C@H]5[C@H](O)[C@H]3O)[C@H]3COC(=O)[C@H]23)OCO4)cc(OC)c1O [ETOPOSIDE] | – | – | – | – | – | – | – | – | – | – | 89.31 | 89.89 | 1.66 | – | – | – | –
